Laboratory results published in patent publication US8241393B2, “Methods and articles for gold nanoparticle production” (The Curators of the University of Missouri, priority 2005, dated 2012).

Assay: Stabilization/storage of gold nanoparticles by exposure to a phosphino amino acid
Format: physicochemical
From the text: In addition to tuning particle size, an important purpose of stabilizers is to prevent agglomeration and/or oxidation of the gold nanoparticles during storage. All of the stabilizers identified above have been discovered to provide beneficial stability for gold nanoparticles produced through methods of the invention. […] Carbohydrates are an additional stabilizer discovered to be useful with practice of methods of the invention. More than one stabilizer may be employed. Any selected stabilizer can be added at any time during the synthesis of the nanoparticles. Preferably, the stabilizer is present in solution prior to introduction of the final reactant (i.e., one or both of gold salt and phosphino amino acid are added to a solution that already contains a stabilizer).
Still additional example methods of the invention are directed to methods for storing and/or stabilizing gold nanoparticles. It has been discovered the use of phosphino amino acids, with TAAC being a preferred example, provide beneficial levels of stability for storing gold nanoparticles. In an example method of the invention, gold nanoparticles (that may have been, for example, produced through a method other than one of the present invention) are exposed to a phosphino amino acid such as TAAC to prevent their agglomeration.

prevention of agglomeration of gold nanoparticles (over periods of 7, 14 and even 30 days): substantially prevent agglomeration
SMILES: CC(NCP(CNC(C)C(=O)O)CNC(C)C(=O)O)C(=O)O (centres unmarked) [TAAC, trimeric alanine phosphine conjugate]
protection of gold nanoparticles from oxidation: help “protect” gold nanoparticles from oxidation
